# Activity calls are given as the source filed them. The calls are words filed in the database; no cut-off is given here.
# Assays:
# Hormone-sensitive lipase = biological target: T1, Hormone-sensitive lipase (Homo sapiens, UniProt Q05469); assay: Inhibition of recombinant human HSL expressed in Sf9 insect cells using PNPB as substrate measured after 5 mins by spectrophotometric method
# T1 sequence (Q05469 whole entry): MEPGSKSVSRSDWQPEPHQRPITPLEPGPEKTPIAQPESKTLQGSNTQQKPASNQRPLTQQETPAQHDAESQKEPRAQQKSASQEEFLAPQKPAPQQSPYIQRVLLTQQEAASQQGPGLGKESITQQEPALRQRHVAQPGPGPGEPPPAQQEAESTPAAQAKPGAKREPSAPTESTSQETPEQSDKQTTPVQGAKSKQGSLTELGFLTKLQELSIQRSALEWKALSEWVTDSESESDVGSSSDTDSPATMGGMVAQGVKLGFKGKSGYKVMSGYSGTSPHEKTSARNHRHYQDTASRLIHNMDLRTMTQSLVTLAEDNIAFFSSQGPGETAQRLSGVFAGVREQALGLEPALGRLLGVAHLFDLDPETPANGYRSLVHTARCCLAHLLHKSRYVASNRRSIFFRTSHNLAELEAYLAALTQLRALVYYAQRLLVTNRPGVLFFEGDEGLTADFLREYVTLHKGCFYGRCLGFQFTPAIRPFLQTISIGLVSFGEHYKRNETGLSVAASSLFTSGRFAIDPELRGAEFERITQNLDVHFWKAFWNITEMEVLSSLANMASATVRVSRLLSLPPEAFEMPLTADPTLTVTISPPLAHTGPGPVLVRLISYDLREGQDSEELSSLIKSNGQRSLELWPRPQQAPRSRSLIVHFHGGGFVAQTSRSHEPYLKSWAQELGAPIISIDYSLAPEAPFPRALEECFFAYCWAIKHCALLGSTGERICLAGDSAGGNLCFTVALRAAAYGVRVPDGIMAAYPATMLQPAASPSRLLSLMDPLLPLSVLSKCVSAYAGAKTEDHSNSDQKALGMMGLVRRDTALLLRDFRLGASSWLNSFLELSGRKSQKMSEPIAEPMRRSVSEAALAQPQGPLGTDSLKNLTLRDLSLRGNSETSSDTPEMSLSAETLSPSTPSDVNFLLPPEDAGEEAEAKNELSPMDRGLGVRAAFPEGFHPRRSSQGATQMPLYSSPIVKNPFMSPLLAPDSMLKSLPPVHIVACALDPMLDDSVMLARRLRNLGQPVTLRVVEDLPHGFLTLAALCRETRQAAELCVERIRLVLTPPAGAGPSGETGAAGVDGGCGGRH
# [1] = AUC (0 to 7 hrs) in rat at 3 mg/kg, po by LC-MS/MS analysis; format: ADME, organism-based; design: time < 7 hr, dose 3 mg/kg, route oral; details: in vivo
# [2] = biological target: T2, Hormone-sensitive lipase (Homo sapiens) (UniProt Q05469); assay: Inhibition of recombinant human HSL expressed in Sf9 insect cells at 1 uM using PNPB as substrate measured after 5 mins by spectrophotometric method
# T2 sequence (whole entry): T1 sequence (Q05469 whole entry)
# [3] = biological target: Cholinesterase (Homo sapiens) (UniProt P06276); assay: Inhibition of BChE (unknown origin) at >50 uM preincubated for 10 mins followed by addition of S-butyrylthiocholine iodide as substrate measured after 15 mins by spectrophotometric method
# Chain of Cholinesterase (Homo sapiens) (P06276 whole entry): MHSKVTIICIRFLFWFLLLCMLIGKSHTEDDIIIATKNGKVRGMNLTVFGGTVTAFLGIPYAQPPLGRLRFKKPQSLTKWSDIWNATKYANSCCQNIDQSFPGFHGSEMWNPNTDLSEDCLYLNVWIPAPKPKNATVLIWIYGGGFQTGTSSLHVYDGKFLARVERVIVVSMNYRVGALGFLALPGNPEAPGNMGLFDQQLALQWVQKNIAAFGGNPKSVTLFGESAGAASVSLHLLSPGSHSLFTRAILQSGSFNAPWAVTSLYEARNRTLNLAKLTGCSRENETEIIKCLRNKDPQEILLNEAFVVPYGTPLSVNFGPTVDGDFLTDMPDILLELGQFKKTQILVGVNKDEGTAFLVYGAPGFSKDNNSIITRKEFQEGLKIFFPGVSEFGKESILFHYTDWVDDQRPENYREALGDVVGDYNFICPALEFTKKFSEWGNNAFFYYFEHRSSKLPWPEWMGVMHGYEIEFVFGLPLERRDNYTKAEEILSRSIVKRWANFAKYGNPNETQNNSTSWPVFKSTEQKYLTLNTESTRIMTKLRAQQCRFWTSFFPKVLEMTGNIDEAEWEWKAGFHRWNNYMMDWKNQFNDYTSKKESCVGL
# [4] = Cmax in rat at 3 mg/kg, po by LC-MS/MS analysis; format: ADME, organism-based; design: dose 3 mg/kg, route oral; details: in vivo
# [5] = biological target: T2, Hormone-sensitive lipase (Homo sapiens); assay: Mixed-type inhibition of recombinant human HSL expressed in Sf9 insect cells using PNPB as substrate measured after 5 mins by Lineweaver-Burk plot analysis
# Rattus norvegicus [6] = assay: Antilipolytic activity in orally dosed fasted Wistar rat assessed as reduction of plasma glycerol AUC ( 0 to 7 hrs); format: functional, organism-based
# [7] = Half life in rat plasma at 3 mg/kg, po by LC-MS/MS analysis; format: ADME, organism-based
# Rattus norvegicus [8] = assay: Antilipolytic activity in fasted Wistar rat assessed as reduction of plasma glycerol AUC ( 0 to 7 hrs) at 3 mg/kg, po; format: functional; design: scale not given: the % may be the effect or the level left
# [9] = biological target: Acetylcholinesterase (Homo sapiens) (UniProt P22303); assay: Inhibition of AChE (unknown origin) at >50 uM preincubated for 10 mins followed by addition of acetylthiocholine iodide as substrate measured after 15 mins by spectrophotometric method
# Chain of Acetylcholinesterase (Homo sapiens) (P22303 whole entry): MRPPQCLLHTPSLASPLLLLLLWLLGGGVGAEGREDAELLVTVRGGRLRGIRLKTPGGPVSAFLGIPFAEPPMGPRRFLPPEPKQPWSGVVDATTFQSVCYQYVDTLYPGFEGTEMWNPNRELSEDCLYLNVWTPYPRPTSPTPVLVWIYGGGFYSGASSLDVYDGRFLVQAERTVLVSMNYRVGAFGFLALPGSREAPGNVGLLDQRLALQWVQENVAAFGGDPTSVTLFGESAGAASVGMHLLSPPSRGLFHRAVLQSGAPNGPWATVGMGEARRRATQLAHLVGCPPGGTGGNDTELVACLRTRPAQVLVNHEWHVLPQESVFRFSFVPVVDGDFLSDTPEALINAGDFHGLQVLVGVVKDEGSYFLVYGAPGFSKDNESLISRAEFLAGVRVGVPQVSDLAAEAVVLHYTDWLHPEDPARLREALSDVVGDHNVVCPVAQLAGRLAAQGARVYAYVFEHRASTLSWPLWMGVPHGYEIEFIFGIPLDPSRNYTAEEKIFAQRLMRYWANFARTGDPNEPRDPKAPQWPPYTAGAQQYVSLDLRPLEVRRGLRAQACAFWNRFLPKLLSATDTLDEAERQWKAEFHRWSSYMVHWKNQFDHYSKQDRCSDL
# [10] = biological target: T2, Hormone-sensitive lipase (Homo sapiens); assay: Inhibition of recombinant human HSL expressed in Sf9 insect cells at 10 uM using PNPB as substrate measured after 5 mins by spectrophotometric method
# Rattus norvegicus [11] = assay: Antilipolytic activity in fasted Wistar rat assessed as reduction of plasma glycerol AUC ( 0 to 7 hrs) at 10 mg/kg, po; format: functional, organism-based
smiles,measurement,setting,value
OB(O)c1ccccc1OCc1ccccc1,IC50,Hormone-sensitive lipase,130 nM
OB(O)c1ccccc1OCc1ccc(Oc2ccc(C(F)(F)F)cn2)cc1,AUC(0-t) at 7 h,[1],1750 ng·h/mL
same,inhibition,[2],89%
same,inhibition,[3],inactive
same,Cmax,[4],420 ng/mL
same,inhibition,[5],Active
same,Activity,Rattus norvegicus [6],Dose-dependent effect
same,IC50,Hormone-sensitive lipase,7 nM
same,half-life,[7],2.95 h
same,Activity,Rattus norvegicus [8],11%
same,inhibition,[9],inactive
N#Cc1ccccc1OCc1ccc(Oc2ccc(C(F)(F)F)cn2)cc1,inhibition,[2],0%
CC1(C)OB(c2ccccc2OCc2ccc(Oc3ccc(C(F)(F)F)cn3)cc2)OC1(C)C,inhibition,[2],81%
CC1(C)OB(c2cccc(OCc3ccc(Oc4ccc(C(F)(F)F)cn4)cc3)c2)OC1(C)C,inhibition,[2],59%
O=C(O)c1ccccc1OCc1ccc(Oc2ccc(C(F)(F)F)cn2)cc1,inhibition,[2],-8%
O=C(c1ccccc1OCc1ccc(Oc2ccc(C(F)(F)F)cn2)cc1)C(F)(F)F,inhibition,[2],1%
O=P(O)(O)c1ccccc1OCc1ccc(Oc2ccc(C(F)(F)F)cn2)cc1,inhibition,[2],-5%
CC1(C)OB(c2ccc(OCc3ccc(Oc4ccc(C(F)(F)F)cn4)cc3)cc2)OC1(C)C,inhibition,[2],-10%
O=C(Nc1ccc(Oc2ccc(C(F)(F)F)cn2)cc1)N1CCC(O)CC1,inhibition,[10],0%
O=C(Oc1ccc(Oc2ccc(C(F)(F)F)cn2)cc1)N1CCC(O)CC1,Activity,Rattus norvegicus [11],Active
same,IC50,Hormone-sensitive lipase,270 nM
O=C(Cc1ccc(Oc2ccc(C(F)(F)F)cn2)cc1)N1CCC(O)CC1,inhibition,[10],2%
